These results are taken from US9695178B2, “6-(2-pyridyl)-7,8-dihydro-5H-pyrido[4,3-D]pyrimidine analogs as hedgehog pathway signaling inhibitors and therapeutic applications thereof” (Suzhou Yunxuan Yiyao Keji Youxian Gongsi, priority 2013, dated 2017).

This assay deals with Smo (Homo sapiens, UniProt Q99835). Briefly: Bodipy-Cyclopamine Binding Assay (confirmation assay), Hek293-SMO cells.
Chain of Smo (Q99835 28-787): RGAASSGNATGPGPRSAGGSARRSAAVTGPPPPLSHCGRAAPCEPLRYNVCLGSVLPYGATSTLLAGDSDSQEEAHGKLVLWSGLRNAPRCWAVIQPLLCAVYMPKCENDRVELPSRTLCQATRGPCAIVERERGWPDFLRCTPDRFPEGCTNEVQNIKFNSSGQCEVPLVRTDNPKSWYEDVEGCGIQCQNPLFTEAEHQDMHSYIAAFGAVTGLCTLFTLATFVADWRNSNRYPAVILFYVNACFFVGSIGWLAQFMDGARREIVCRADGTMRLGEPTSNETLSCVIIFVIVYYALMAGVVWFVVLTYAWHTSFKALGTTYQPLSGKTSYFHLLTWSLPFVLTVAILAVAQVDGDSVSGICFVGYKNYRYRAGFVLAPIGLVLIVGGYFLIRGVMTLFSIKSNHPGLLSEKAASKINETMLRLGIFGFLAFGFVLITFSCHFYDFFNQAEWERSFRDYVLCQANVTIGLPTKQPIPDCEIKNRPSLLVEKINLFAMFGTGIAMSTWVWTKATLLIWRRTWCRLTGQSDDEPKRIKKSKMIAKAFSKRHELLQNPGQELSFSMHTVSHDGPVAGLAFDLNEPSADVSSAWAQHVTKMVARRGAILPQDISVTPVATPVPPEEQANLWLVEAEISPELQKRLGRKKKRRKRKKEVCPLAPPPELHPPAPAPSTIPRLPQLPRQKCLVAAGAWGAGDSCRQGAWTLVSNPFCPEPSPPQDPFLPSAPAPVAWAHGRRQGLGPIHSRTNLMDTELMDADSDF
Description: The confirmation assay is based on Bodipy-Cyclopamine Binding Assay:
Bodipy-Cyclopamine binding assay is a fluorescence based assay used to analysis the binding of Smo agonists. […] Bodipy-Cyclopamine was purchased from Toronto Research Chemicals and dissolved in methanol.
Hek293-SMO cells were plated in 96-well-plate (3340, Corning), the final cell concentration is 15,000 cells/well in 100 ul 1% serum-containing DMEM. The plates were incubated in 37 degree for additional 48 hours.
Hek293-SMO plate were washed with PBS and fixed with 4% paraformaldehyde (PFA)/PBS for 20 min at room temperature. After removing the PFA buffer, the cells were incubated with DAPI/PBS (5 ug/mL) for 10 min and followed by twice wash with PBS. After wash, cells were incubated for 2 h at room temperature in binding buffer (HBSS W/O Ca^2+ and Mg^2+) containing 100 nM bodipy-cyclopamine and compounds over a range of concentrations from 0-10 μM for competitive binding. After incubation, the cells were washed twice with the PBS. The fluorescence images were automatically captured and analyzed by a high content fluorescence imaging system (Arrayscan VTI, Thermo). GDC-0449 was used as reference compound to normalize the data. IC50 values were calculated with GraphPad Prism software using the sigmoidal dose-response function. The Ki was calculated following the Cheng-Prusoff equation, as Ki=IC50/[1+[bodipy-cyclopamine]/Kd)].
For orientation: IC50 means the concentration that gives 50% inhibition. A high value points to weaker potency in that assay. `Cc1cnc(-c2cc(N3CCc4nc(NCC5CC5)ncc4C3)ncc2Cl)c(C)c1` [Compound A-65, 6-(5′-chloro-3,5-dimethyl-2,4′-bipyridin-2′-yl)-N-(cyclopropyl-meth-yl)-5,6,7,8-tetrahydro-pyrido-[4,3-d]pyrimidin-2-amine]: the IC50 was found to be 85.3 nM.

The compound `Cc1cnc(-c2cc(N3CCc4nc(N5CCC(O)C5)ncc4C3)ncc2Cl)c(C)c1` (stereo not shown) [Compound A-66, 1-(6-(5′-chloro-3,5-dimethyl-2,4′-bipyridin-2′-yl)-5,6,7,8-tetrahydro-pyrido-[4,3-d]pyrim-idin-2-yl)pyrrolidin-3-ol] showed an IC50 of 85.1 nM.

In the case of `CCOc1ncc2c(n1)CCN(c1cc(-c3ncc(C)cc3C)c(Cl)cn1)C2` [Compound A-67, 6-(5′-chloro-3,5-dimethyl-2,4′-bipyridin-2′-yl)-2-ethoxy-5,6,7,8-tetrahydro-pyrido-[4,3-d]pyrim-idine], the IC50 is 207 nM. Under `COC1CCN(c2ncc3c(n2)CCN(c2cc(-c4ncc(C)cc4C)c(Cl)cn2)C3)CC1` [Compound A-68, 6-(5′-chloro-3,5-dimethyl-2,4′-bipyridin-2′-yl)-2-(4-methoxy-piperidin-1-yl)-5,6,7,8-tetrahydro-pyrido-[4,3-d]pyrim-idine] stands 163 nM; under `Cc1cnc(-c2cc(N3CCc4nc(OC(C)C)ncc4C3)ncc2Cl)c(C)c1` [Compound A-69, 6-(5′-chloro-3,5-dimethyl-2,4′-bipyridin-2′-yl)-2-isopropoxy-5,6,7,8-tetrahydro-pyrido-[4,3-d]pyrim-idine], 97.8 nM. With `Cc1cnc(-c2cc(N3CCc4nc(NC5CCCC5)ncc4C3)ncc2Cl)c(C)c1` [Compound A-70, 6-(5′-chloro-3,5-dimethyl-2,4′-bipyridin-2′-yl)-N-cyclopentyl-5,6,7,8-tetrahydro-pyrido-[4,3-d]pyrim-idin-2-amine], the IC50 worked out at 117 nM. As to `Cc1cnc(-c2cc(N3CCc4nc(OC5CCCC5)ncc4C3)ncc2Cl)c(C)c1` [Compound A-71, 6-(5′-chloro-3,5-dimethyl-2,4′-bipyridin-2′-yl)-2-(cyclo-pentyloxy)-5,6,7,8-tetrahydro-pyrido-[4,3-d]pyrim-idine], the IC50 is 77.1 nM. As for `Cc1cnc(-c2cc(N3CCc4nc(N5CC(O)C5)ncc4C3)ncc2Cl)c(C)c1` [Compound A-72, 1-(6-(5′-chloro-3,5-dimethyl-2,4′-bipyridin-2′-yl)-5,6,7,8-tetrahydro-pyrido-[4,3-d]pyrimidin-2-yl)azetidin-3-ol], the IC50 came to 283 nM. `Cc1cnc(-c2cc(N3CCc4nc(OCC5CC5)ncc4C3)ncc2Cl)c(C)c1` [Compound A-73, 6-(5′-chloro-3,5-dimethyl-2,4′-bipyridin-2′-yl)-2-(cyclopropyl-methoxy)-5,6,7,8-tetrahydro-pyrido-[4,3-d]pyrim-idine] gave an IC50 of 84 nM.

Take `CSc1ncc2c(n1)C(C)CN(c1cc(-c3ncc(C)cc3C)c(Cl)cn1)C2` (stereo not shown) [Compound A-74, 6-(5′-chloro-3,5-dimethyl-2,4′-bipyridin-2′-yl)-8-methyl-2-(methylthio)-5,6,7,8-tetrahydro-pyrido-[4,3-d]-pyrimidine]: the IC50 amounted to 575 nM.

Compound `Cc1cnc(-c2cc(N3Cc4cnc(NC5CC5)nc4C(C)C3)ncc2Cl)c(C)c1` (stereo not shown) [Compound A-75, 6-(5′-chloro-3,5-dimethyl-2,4′-bipyridin-2′-yl)-N-cyclopropyl-8-methyl-5,6,7,8-tetrahydro-pyrido-[4,3-d]pyrimidin-2-amine] gave an IC50 of 257 nM. `Cc1cnc(-c2cc(N3Cc4cnc(N5CC(C)NC(C)C5)nc4C(C)C3)ncc2Cl)c(C)c1` (stereo not shown) [Compound A-76, 6-(5′-chloro-3,5-dimethyl-2,4′-bipyridin-2′-yl)-2-(3,5-dimethyl-piperazin-1-yl)-8-methyl-5,6,7,8-tetrahydro-pyrido-[4,3-d]pyrimidine] showed a half-inhibitory concentration (IC50) of 147 nM. Regarding `Cc1cnc(-c2cc(N3Cc4cnc(N5CCCC5)nc4C(C)C3)ncc2Cl)c(C)c1` (stereo not shown) [Compound A-77, 6-(5′-chloro-3,5-dimethyl-2,4′-bipyridin-2′-yl)-8-methyl-2-(pyrrolidin-1-yl)-5,6,7,8-tetrahydropyrido[4,3-d]pyrimidine], the IC50 worked out at 92.9 nM.
